{"source": "patent US10928381B2", "about": "“In vitro methods of monitoring autophagy in a human cell using a photoconvertable fluorescent protein linked biomarker” (The Regents of the University of Michigan, priority 2018, dated 2021)", "key": {"Dendra2-LC3 HEK cells": {"test_system": "Dendra2-LC3 HEK cells", "assay": "Native (green, GFP) Dendra2-LC3 intensity and puncta, phase I primary screen readout (T15/T0)", "type": "cell-based, human", "settings": "for GFP intensity of native Dendra2-LC3: vs DMSO", "from_the_text": "Conventional methods for estimating autophagy flux rely upon the assessment of LC3 or other autophagy substrates by Western blotting or immunocytochemistry (Ref. 27; herein incorporated by reference in its entirety); by their very nature, these techniques are static and limited to dead cells. Fluorescence-based methods that use tagged substrates allow visualization of autophagy within living cells, but typically require the overexpression of autophagy target proteins that may disrupt the very process they are intended to measure. To assess autophagy in human cells without compromising or interfering with the pathway, experiments were conducted during development of embodiments herein utilizing CRISPR/Cas9 genome editing (Refs. 29-30; herein incorporated by reference in their entireties) to insert the Dendra2 open reading frame into the MAP1LC3B locus (encoding LC3) of HEK cells (FIG. 2a). A mutated, nickase version of Cas9 (Cas9n) was used that is incapable of making double-stranded DNA breaks, thereby minimizing the risk of non-homologous end joining and unwanted insertions or deletions (Refs. 29, 35; herein incorporated by reference in their entireties). Two separate single guide RNAs (sgRNAs) were designed that recognize sequences just upstream and downstream of the MAP1LC3B start codon, and a homology directed repair (HDR) vector encoding the Dendra2 open reading frame flanked by 400 bp of homologous sequence surrounding the MAP1LC3B start codon (FIG. 2a). Following expression of the sgRNAs, Cas9n and the HDR in HEK cells, colonies were selected based upon green fluorescence and passaged to homogeneity (FIG. 2b). The insertion site was confirmed by DNA sequencing, PCR, and immunocytochemistry using antibodies that recognize LC3. Providing further validation of the insertion, transfection with siRNA directed against the MAP1LC3B locus elicited a significant reduction in Dendra2-LC3 protein levels as measured by western blotting and native GFP fluorescence (FIG. 2c, d). In untreated cells, Dendra2-LC3 fluorescence appears diffuse, as expected (FIG. 3a). […] Second, autophagy induction in these cells is accompanied not only by the formation of puncta, but also by relative decreases in diffuse Dendra2-LC3 fluorescence, as indicated by the model in FIG. 1.\nFor these studies the potent mTOR inhibitor torin1 (Ref. 36; herein incorporated by reference in its entirety) was selected as a positive control for autophagy induction, and the vacuolar ATPase inhibitor bafilomycin-A1 (Ref. 37; herein incorporated by reference in its entirety) as a positive control for autophagy inhibition. In each case, DMSO served as a vehicle (negative) control. Dendra2-LC3 was photoconverted immediately prior to drug application, and the fluorescence intensity in the green (GFP) and red (RFP) channels was measured at regular intervals for 15 h.\nThe Z′ value for the effect of torin1 on the normalized GFP intensity, calculated as a ratio of GFP intensity at 15 h to that at 0 h (T15/T0), was 0.63 when the assay was conducted in a 96-well format in our laboratory, and 0.56 when conducted in a 384-well format at the Center for Chemical Genomics (CCG, FIG. 3e), indicative of a robust screening platform (Ref. 38; herein incorporated by reference in its entirety). […] The false negative rate was near zero, ensuring a highly sensitive assay.\n(§1) The possibility that cell death and toxicity mimics the reduction in GFP intensity that would otherwise denote autophagy induction was also addressed. To avoid confounding from toxicity, the area occupied by cells in each image is calculated using ImageJ software and used as a proxy for cell number; since all wells received the same number of cells, >25% reductions in the area occupied by cells at the end of the experiment indicates toxicity. The formation of Dendra2-LC3 puncta in each condition is scored simultaneously using the ‘analyze particles’ function in ImageJ. […]"}, "[1]": {"test_system": "ATG5-deficient Dendra2-LC3 HEK cells", "assay": "Autophagic flux in Dendra2-LC3 HEK cells with ATG5 siRNA knockdown", "type": "cell-based, human", "settings": "20 nM ATG5 siRNA two days prior to imaging, red and green channels", "method": "FIG. 6, panels a-c. Evaluation of autophagy-modifying compounds in ATG5-deficient cells. […] IB, immunoblot.\nFIGS. 8A-E. Time dependent decay of Dendra2-LC3 as an assay of autophagic flux. (FIG. 8A) Dendra2-LC3 reporter cells were imaged prior to photoconversion to measure background TRITC intensity. Immediately following photoconversion with a 5 second pulse of […] light, cells were treated with DMSO, 1 uM Torin1, or 10 nM Bafilomycin-A1 and then were subsequently imaged at the indicated time points. Images are psuedocolored to better highlight intensity differences. (FIGS. 8B-E) Time dependent changes in photoconverted Dendra2-LC3 fluorescence in the TRITC (FIGS. 8B, D) and GFP (FIGS. 8C, E) channels. Gray boxes represent the pre and post-photoconversion time points. […]\nas §1"}}, "note": "“Also recorded” adds a separate entry of the source."}
{"smiles": "CCC(=O)N1CCN(c2ccc(-n3c(=O)ccc4cnc5ccc(-c6cnc7ccccc7c6)cc5c43)cc2C(F)(F)F)CC1", "note": "[Torin1, torin1]", "values": [{"measurement": "Formation of Dendra2-LC3 (LC3-positive) puncta", "setting": "Dendra2-LC3 HEK cells; FPZ 0.5 μM, torin1 1 μM", "result": "elicits the formation of LC3-positive puncta"}, {"measurement": "GFP intensity of native Dendra2-LC3", "setting": "Dendra2-LC3 HEK cells; FPZ 0.5 μM, torin1 1 μM", "result": "return is prevented"}, {"measurement": "GFP intensity of native Dendra2-LC3", "setting": "Dendra2-LC3 HEK cells; FPZ 0.5 μM, torin1 1 μM, listed as torin1", "result": "highly significant and durable reduction"}, {"measurement": "GFP intensity of native Dendra2-LC3", "setting": "Dendra2-LC3 HEK cells; FPZ 0.5 μM, torin1 1 μM, listed as torin-1", "result": "reduces the steady-state GFP intensity"}, {"measurement": "Rank among autophagy inducers in phase I", "setting": "Dendra2-LC3 HEK cells; Prestwick and Enzo collections", "result": "rank among the most potent inducers"}, {"measurement": "Effect of ATG5 knockdown on drug-induced autophagic flux", "setting": "[1]", "result": "attenuates the effects"}, {"measurement": "Effect of ATG5 knockdown on drug-induced autophagic flux", "setting": "[1]; listed as torin1", "result": "attenuates the ability of torin1 to induce autophagic flux; also recorded: mitigated the autophagy-inducing effects"}]}
{"smiles": "CO/C1=C\\C(C)=C\\[C@@H](C)[C@@H](O)[C@@H](C)C/C(C)=C/C=C/[C@H](OC)[C@@H]([C@@H](C)[C@@H](O)[C@H](C)[C@@]2(O)C[C@@H](O)[C@H](C)[C@@H](C(C)C)O2)OC1=O", "note": "[Bafilomycin-A1, bafilomycin-A1]", "values": [{"measurement": "Effect on torin1-elicited reduction in GFP intensity", "setting": "Dendra2-LC3 HEK cells; co-treatment with torin1", "result": "fully blocked"}]}
